# In ChEMBL document CHEMBL3885861, “Open TG-GATES”:
# Species: Rattus norvegicus
# Assay: Open TG-GATES - Regimen: Daily Repeat
# Format: toxicity, organism-based, Sprague-Dawley
# Design: regimen Daily Repeat, gender Male, age 6 weeks
# Details: in vivo, po, 15 mg/kg, route gavage, dose level Low; for APTT / Bas / Eos / Fbg / Hb / Ht / Lym / MCH / MCHC / MCV / Mono / Neu / PT / Plat / RBC / Ret / WBC: tissue Blood; for KIDNEY_L / KIDNEY_R / KIDNEY_TOTAL: tissue Kidney; for LIVER: tissue Liver; for A/G / ALP / ALT / AST / BUN / CRE / Ca / Cl / DBIL / GLC / IP / K / LDH / Na / PL / RALB / TBIL / TC / TG / TP / gamma-GTP: tissue Plasma
smiles,measurement,setting,value
CN(C)CCC=C1c2ccccc2CCc2ccccc21 [AMITRIPTYLINE],TERMINAL_BW,"72 h, time 3 day",224.1 g
same,APTT,"72 h, time 3 day",16 s
same,Bas,"72 h, time 3 day",0%
same,Eos,"72 h, time 3 day",1%
same,Fbg,"72 h, time 3 day",268.6 mg/dL
same,Hb,"72 h, time 3 day",13.1 g/dL
same,Ht,"72 h, time 3 day",40%
same,Lym,"72 h, time 3 day",76.8%
same,MCH,"72 h, time 3 day",20.3 pg
same,MCHC,"72 h, time 3 day",32.7%
same,MCV,"72 h, time 3 day",62 fL
same,Mono,"72 h, time 3 day",3%
same,Neu,"72 h, time 3 day",18.2%
same,PT,"72 h, time 3 day",16 s
same,Plat,"72 h, time 3 day",118.8 x10_4/uL
same,RBC,"72 h, time 3 day",645.4 x10_4/ul
same,Ret,"72 h, time 3 day",7.3%
same,WBC,"72 h, time 3 day",97.8 x10_2/uL
same,KIDNEY_L,"72 h, time 3 day",0.9 g
same,KIDNEY_R,"72 h, time 3 day",0.9 g
same,KIDNEY_TOTAL,"72 h, time 3 day",1.8 g
same,LIVER,"72 h, time 3 day",10.4 g
same,A/G,"72 h, time 3 day",0.8
same,ALP,"72 h, time 3 day",1844.8 IU/L
same,ALT,"72 h, time 3 day",55.8 IU/L
same,AST,"72 h, time 3 day",74.6 IU/L
same,BUN,"72 h, time 3 day",14.2 mg/dL
same,CRE,"72 h, time 3 day",0.2 mg/dL
same,Ca,"72 h, time 3 day",11 mg/dL
same,Cl,"72 h, time 3 day",105.6 meq/L
same,DBIL,"72 h, time 3 day",0.022 mg/dL
same,GLC,"72 h, time 3 day",185.2 mg/dL
same,IP,"72 h, time 3 day",7.7 mg/dL
same,K,"72 h, time 3 day",4 meq/L
same,LDH,"72 h, time 3 day",74.6 IU/L
same,Na,"72 h, time 3 day",143.6 meq/L
same,PL,"72 h, time 3 day",150.2 mg/dL
same,RALB,"72 h, time 3 day",2.7 g/dL
same,TBIL,"72 h, time 3 day",0.06 mg/dL
same,TC,"72 h, time 3 day",76.2 mg/dL
same,TG,"72 h, time 3 day",106 mg/dL
same,TP,"72 h, time 3 day",5.8 g/dL
same,gamma-GTP,"72 h, time 3 day",0.8 IU/L
same,TERMINAL_BW,"[…], time 7 day",265.9 g
same,TERMINAL_BW,"[…], time 14 day",314.4 g
same,TERMINAL_BW,"[…], time 28 day",400.5 g
same,APTT,"[…], time 7 day",15.5 s
same,Bas,"[…], time 7 day",0%
same,Eos,"[…], time 7 day",1.2%
same,Fbg,"[…], time 7 day",292 mg/dL
same,Hb,"[…], time 7 day",13.6 g/dL
same,Ht,"[…], time 7 day",41.4%
same,Lym,"[…], time 7 day",79.6%
same,MCH,"[…], time 7 day",20.6 pg
same,MCHC,"[…], time 7 day",32.7%
same,MCV,"[…], time 7 day",62.8 fL
same,Mono,"[…], time 7 day",3%
same,Neu,"[…], time 7 day",15.6%
same,PT,"[…], time 7 day",15.1 s
same,Plat,"[…], time 7 day",116.5 x10_4/uL
same,RBC,"[…], time 7 day",659 x10_4/ul
same,Ret,"[…], time 7 day",6.3%
same,WBC,"[…], time 7 day",93.6 x10_2/uL
same,APTT,"[…], time 14 day",17.3 s
same,Bas,"[…], time 14 day",0.4%
same,Eos,"[…], time 14 day",1%
same,Fbg,"[…], time 14 day",289.6 mg/dL
same,Hb,"[…], time 14 day",14 g/dL
same,Ht,"[…], time 14 day",42.2%
same,Lym,"[…], time 14 day",76%
same,MCH,"[…], time 14 day",20 pg
same,MCHC,"[…], time 14 day",33.2%
same,MCV,"[…], time 14 day",60.3 fL
same,Mono,"[…], time 14 day",2.2%
same,Neu,"[…], time 14 day",20%
same,PT,"[…], time 14 day",16 s
same,Plat,"[…], time 14 day",118.1 x10_4/uL
same,RBC,"[…], time 14 day",698.6 x10_4/ul
same,Ret,"[…], time 14 day",4.4%
same,WBC,"[…], time 14 day",115.2 x10_2/uL
same,APTT,"[…], time 28 day",21.5 s
same,Bas,"[…], time 28 day",0.2%
same,Eos,"[…], time 28 day",1.4%
same,Fbg,"[…], time 28 day",286.6 mg/dL
same,Hb,"[…], time 28 day",15.5 g/dL
same,Ht,"[…], time 28 day",45.4%
same,Lym,"[…], time 28 day",81.4%
same,MCH,"[…], time 28 day",19.3 pg
same,MCHC,"[…], time 28 day",34.1%
same,MCV,"[…], time 28 day",56.6 fL
same,Mono,"[…], time 28 day",2%
same,Neu,"[…], time 28 day",14.2%
same,PT,"[…], time 28 day",16.1 s
same,Plat,"[…], time 28 day",97.5 x10_4/uL
same,RBC,"[…], time 28 day",802.8 x10_4/ul
same,Ret,"[…], time 28 day",2.5%
same,WBC,"[…], time 28 day",104.9 x10_2/uL
same,KIDNEY_L,"[…], time 7 day",1.1 g
same,KIDNEY_R,"[…], time 7 day",1.1 g
same,KIDNEY_TOTAL,"[…], time 7 day",2.1 g
same,KIDNEY_L,"[…], time 14 day",1.2 g
same,KIDNEY_R,"[…], time 14 day",1.2 g
same,KIDNEY_TOTAL,"[…], time 14 day",2.4 g
same,KIDNEY_L,"[…], time 28 day",1.4 g
same,KIDNEY_R,"[…], time 28 day",1.4 g
same,KIDNEY_TOTAL,"[…], time 28 day",2.8 g
same,LIVER,"[…], time 7 day",12.7 g
same,LIVER,"[…], time 14 day",13.8 g
same,LIVER,"[…], time 28 day",16.1 g
same,A/G,"[…], time 7 day",0.8
same,ALP,"[…], time 7 day",1784.2 IU/L
same,ALT,"[…], time 7 day",44.8 IU/L
same,AST,"[…], time 7 day",70.6 IU/L
same,BUN,"[…], time 7 day",18.4 mg/dL
same,CRE,"[…], time 7 day",0.2 mg/dL
same,Ca,"[…], time 7 day",10.9 mg/dL
same,Cl,"[…], time 7 day",105.6 meq/L
same,DBIL,"[…], time 7 day",0.018 mg/dL
same,GLC,"[…], time 7 day",187.6 mg/dL
same,IP,"[…], time 7 day",7.7 mg/dL
same,K,"[…], time 7 day",4.1 meq/L
same,LDH,"[…], time 7 day",85.8 IU/L
same,Na,"[…], time 7 day",143.8 meq/L
same,PL,"[…], time 7 day",163.8 mg/dL
same,RALB,"[…], time 7 day",2.7 g/dL
same,TBIL,"[…], time 7 day",0.046 mg/dL
same,TC,"[…], time 7 day",78 mg/dL
same,TG,"[…], time 7 day",126 mg/dL
same,TP,"[…], time 7 day",5.9 g/dL
same,gamma-GTP,"[…], time 7 day",0.8 IU/L
same,A/G,"[…], time 14 day",0.8
same,ALP,"[…], time 14 day",1397.6 IU/L
same,ALT,"[…], time 14 day",44 IU/L
same,AST,"[…], time 14 day",69 IU/L
same,BUN,"[…], time 14 day",16.8 mg/dL
same,CRE,"[…], time 14 day",0.2 mg/dL
same,Ca,"[…], time 14 day",10.9 mg/dL
same,Cl,"[…], time 14 day",105.8 meq/L
same,DBIL,"[…], time 14 day",0.018 mg/dL
same,GLC,"[…], time 14 day",196 mg/dL
same,IP,"[…], time 14 day",6.8 mg/dL
same,K,"[…], time 14 day",4 meq/L
same,LDH,"[…], time 14 day",65 IU/L
same,Na,"[…], time 14 day",142.8 meq/L
same,PL,"[…], time 14 day",154 mg/dL
same,RALB,"[…], time 14 day",2.7 g/dL
same,TBIL,"[…], time 14 day",0.05 mg/dL
same,TC,"[…], time 14 day",70 mg/dL
same,TG,"[…], time 14 day",156.2 mg/dL
same,TP,"[…], time 14 day",6.1 g/dL
same,gamma-GTP,"[…], time 14 day",0.4 IU/L
same,A/G,"[…], time 28 day",0.8
same,ALP,"[…], time 28 day",1354.6 IU/L
same,ALT,"[…], time 28 day",36 IU/L
same,AST,"[…], time 28 day",61.2 IU/L
same,BUN,"[…], time 28 day",17.6 mg/dL
same,CRE,"[…], time 28 day",0.2 mg/dL
same,Ca,"[…], time 28 day",10.6 mg/dL
same,Cl,"[…], time 28 day",103.8 meq/L
same,DBIL,"[…], time 28 day",0.018 mg/dL
same,GLC,"[…], time 28 day",180.6 mg/dL
same,IP,"[…], time 28 day",6.2 mg/dL
same,K,"[…], time 28 day",3.8 meq/L
same,LDH,"[…], time 28 day",55.4 IU/L
same,Na,"[…], time 28 day",142.8 meq/L
same,PL,"[…], time 28 day",156.2 mg/dL
same,RALB,"[…], time 28 day",2.8 g/dL
same,TBIL,"[…], time 28 day",0.056 mg/dL
same,TC,"[…], time 28 day",77 mg/dL
same,TG,"[…], time 28 day",130.4 mg/dL
same,TP,"[…], time 28 day",6.3 g/dL
same,gamma-GTP,"[…], time 28 day",0 IU/L
